Patent EP2229935A1, “Peptide derivatives or pharmaceutically acceptable salts thereof, method for producing the same, use of said derivatives and pharmaceutical composition” (Nebolsin, Vladimir Evgenievich, priority 1997, dated 1999)
Marks after values point to notes of the source that are not given here.

How the values were obtained:
mongrel male mice = test: Average lifetime of mice in a closed volume (hypoxia); format: in vivo
Procedure: The tests of determining average lifetime of animals in a closed volume and on the model of acute hypobaric hypoxia at the minimum atmospheric rarefaction (170-185 mm Hg) were used to study antihypoxic activity of the compunds of general formula (I).
Mice were one by one placed into sealed glass jars and their lifetime was recorded.
The experiment was carried out on 90 mongrel male mice having initial body mass 20 ± 0,5 g housed in cages by 10 animals and given a standard vivarium ration. Average lifetime of mice in closed vessels having volume 250 ml was preliminarily determined and it was 22 to 25 minutes. All the groups included 10 animals each.
Experimental protocol: • a) - preliminary hypoxia for 12 minutes; • b) - first administration of a compound immediately following preliminary hypoxia; • c) - second administration of a compound in 24 hours after the first one, then daily for three days; • d) - recording lifetime of animals under hypoxic conditions in a sealed space 2 hours after the last administration of a compound.
The test compounds were dissolved in distilled water and orally administered to animals for 5 days.
Experimental groups: • Group 1 -(control) - without preliminary hipoxia with oral administration of distilled water for 5 days; • Groups 2 and 3 - administration of the compound XLIV using two doses 50 and 500 µg respectively; • Group 4 - oral administration of sodium oxybutyrate at a dose […] 2 hours before hypoxia; • Group 5 -(control)- with preliminary hypoxia for 12 minutes with subsequent administration of distilled water for 5 days; • Groups 6 and 7 - administration of the compound XLIV using two doses 50 and 500 µg respectively; • Groups 8 and 9 - administration of the compound III using two doses 50 and 500 µg respectively.

NK-cells = test: Activity of NK-cells after swimming stress (H^3-uridine release from YAC-1); format: in vivo, Balb male mice; conditions: 50 µg/kg orally four times
Procedure: (§1) Experiments were carried out on inbred Balb male mice with initial body mass 16-18 g. Each group included 12 animals. The model of swimming in warm water for 20 minutes was used to develop emotional-locomotory stress in animals. Stress development was estimated by the activity of natural killer lymphocytes (NK cells) and by functioning of the interferon system [Sukhikh T.G., Nossik N.N., Parshina O.V., Van'ko L.V., Meerson F.Z., Yershov F.I. Relationship between the natural cellular cytotoxicity system and the interferon system in immobilization stress. Bulletin of Experimental Biology (1984), ? , pp.593-595].
Activity of NK-cells was determined in the test of H^3-uridine release from the labelled target cells YAC-1 (mouse cellular lymphoma maintained by passages in vitro in suspension in the RPMI-1640 medium with 10% fetal serum). H^3-uridine (3-5 µC/cells/ml) was introduced into cellular suspension at concentration 1 miilion cells/ml on the 60th minute while shaking with 15 minute inerval and subsequent washing with the medium.
Splenocytes of mice which were obtained using the published method [Nossik N.N., Bopegamage S.A., Yershov F.I. Properties of interferons produced by different cell populations. Acta microbiologica Hungarica (1988), Vol. 35, Iss. 4, pp. 397-403] served as the source of NK-cells.
(§2) Animals were divided into four groups, each including 36 mice. • Group 1 - intact animals not subjected to stress and given normal saline (NS). • Group 2 - animals which ere subjected to stress effect and given NS. • Group 3 - animals which were subjected to stress effect and administered compound III. • Group 4 - animals which were subjected to stress effect and administered compound XLIV.
(§3) Activity of NK-cells and interferon state were dynamically determined in 4 hours following stress, in 24 hours and then by days 5, 7 and 10.

α-interferon = α-interferon production by splenocytes after stress; format: in vivo, Balb male mice; conditions: 50 µg/kg orally
Procedure: as §1
(§4) In studying interferon reaction of mouse splenocytes spleen cells were placed into incubation medium (the RPMI-1640 medium + 10% fetal calf serum), their concentration was brought to 1-3 x 10^8 cells/ml and they were incubated at 37°C for 24 hours. Newcasle disease virus (α-interferon induction) and FGA mitogen (γ-interferon induction) were used as intereferon inducers [Nossik N.N., Bopegamage S.A., Yershov F.I. Properties of interferons produced by different cell populations. Acta microbiologica Hungarica (1988), Vol. 35, Iss. 4, pp. 397-403].
as §2, §3

γ-interferon = γ-interferon production by splenocytes after stress; format: in vivo, Balb male mice; conditions: 50 µg/kg orally
Procedure: as §1, §4, §2, §3

Human lymphocytes = test: Concanavalin A-induced blasttransformation of lymphocytes; format: cell-based
Procedure: Human lymphocytes were used for blasttransformation reaction [Kiseleva E.P., Tsveibakh A.S., Goldman E.I., Pigareva N.V. Application of a micromethod to study blasttransformation of lymphocytes in humans and animals. Immunology (1985), No 1, pp. 76-78]. 10 ml blood were collected into a sterile syringe containing heparine (to final concentration 25 U/ml) and incubated to sediment red blood cells (60-90 minutes at 37°C). Leukocytic suspension layer was selected and the number of nucleated cells was calculated. The cells obtained in such a way were incubated for 72 hours in a humid atmosphere with 5% CO2 at 37°C in the cells of plates for immune reactions in RPMI-1640 medium comprising 15% fetal calf serum, […] Neomycine (incubation mixture volume 0.15 ml). 5 x 10^5 cells were introduced into each plate cell. Incubation was carried out in the presence or absence of mitogen phytohemagglutinin (PHA) (Sigma) […] or concanavalin A (ConA) (Sigma) […] with or without addition of the test compounds at different concentrations. […] H^3 -thymidine in RPMI-1640 medium were introduced into each cell 16 hours before incubation termination. Following culturing period termination, 0.15 ml cellular suspension from each plate cell were transferred on the FN-8 paper filters. Filters were dried, washed two times with normal saline for 5 minutes then twice with TCA for 60 minutes. After drying, radioactivity of samples was calculated on a counter in the ZhS-8 scintillator. Stimulation index was calculated as ratio of sample radioactivity with mitogen to sample radioactivity without mitogen.

[1] = with preliminary hypoxia 12 minutes, oral 5 days, 0,05 mg/kg
[2] = with preliminary hypoxia 12 minutes, oral 5 days, 0,50 mg/kg

Compound	Lifetime (seconds) (mongrel male mice; [1])	Lifetime (seconds) (mongrel male mice; [2])	activity of NK-cells (NK-cells; 0.16 days after stress)	activity of NK-cells (NK-cells; 1 day after stress)	activity of NK-cells (NK-cells; 5 days after stress)	activity of NK-cells (NK-cells; 7 days after stress)	activity of NK-cells (NK-cells; 10 days after stress)	α-interferon, U/ml (α-interferon; 0 days after stress) [U/ml]	α-interferon, U/ml (α-interferon; 0.16 days after stress) [U/ml]	α-interferon, U/ml (α-interferon; 1 day after stress) [U/ml]	α-interferon, U/ml (α-interferon; 5 days after stress) [U/ml]	α-interferon, U/ml (α-interferon; 7 days after stress) [U/ml]	α-interferon, U/ml (α-interferon; 10 days after stress) [U/ml]	γ-interferon, U/ml (γ-interferon; 0 days after stress) [U/ml]	γ-interferon, U/ml (γ-interferon; 0.16 days after stress) [U/ml]	γ-interferon, U/ml (γ-interferon; 1 day after stress) [U/ml]	γ-interferon, U/ml (γ-interferon; 5 days after stress) [U/ml]	γ-interferon, U/ml (γ-interferon; 7 days after stress) [U/ml]	γ-interferon, U/ml (γ-interferon; 10 days after stress) [U/ml]	blasttranformation reaction of human lymphocytes induced by ConA (Human lymphocytes)	other results
O=C(O)CCCC(=O)NCCc1c[nH]cn1 [compound III, N-GLUTARYLHISTAMINE]	1670,6±25,3*^5 seconds	1532,6±96,0 seconds	68.5 ± 0.99*^1,2	69.3 ± 1.81***^2	79 ± 1.46	69.3 ± 4.85	77 ± 1.98	160	10	10	160	160	160	80	80	32	32	320	80	stimulating effect	Radioactivity, number of pulses for 20 seconds (Human lymphocytes; 10^-3 M/l, +ConA): 680 ± 82 number of pulses for 20 seconds; Stimulation index (Human lymphocytes; 10^-3 M/l, +ConA): 2.06; Radioactivity, number of pulses for 20 seconds (Human lymphocytes; 10^-3 M/l, no mitogen): 330 ± 105 number of pulses for 20 seconds; Radioactivity, number of pulses for 20 seconds (Human lymphocytes; 10^-4 M/l, +ConA): 1197±97 number of pulses for 20 seconds; Stimulation index (Human lymphocytes; 10^-4 M/l, +ConA): 4.37; Radioactivity, number of pulses for 20 seconds (Human lymphocytes; 10^-4 M/l, no mitogen): 274 ± 28 number of pulses for 20 seconds; Radioactivity, number of pulses for 20 seconds (Human lymphocytes; 10^-5 M/l, +ConA): 1562 ± 134 number of pulses for 20 seconds; Stimulation index (Human lymphocytes; 10^-5 M/l, +ConA): 3.34; Radioactivity, number of pulses for 20 seconds (Human lymphocytes; 10^-5 M/l, no mitogen): 467 ± 109 number of pulses for 20 seconds; Radioactivity, number of pulses for 20 seconds (Human lymphocytes; 10^-6 M/l, +ConA): 1922 ± 248 number of pulses for 20 seconds; Stimulation index (Human lymphocytes; 10^-6 M/l, +ConA): 4.71; Radioactivity, number of pulses for 20 seconds (Human lymphocytes; 10^-6 M/l, no mitogen): 408 ± 75 number of pulses for 20 seconds; Radioactivity, number of pulses for 20 seconds (Human lymphocytes; 10^-7 M/l, +ConA): 1483 ± 67 number of pulses for 20 seconds; Stimulation index (Human lymphocytes; 10^-7 M/l, +ConA): 3.10; Radioactivity, number of pulses for 20 seconds (Human lymphocytes; 10^-7 M/l, no mitogen): 478 ± 35 number of pulses for 20 seconds; Radioactivity, number of pulses for 20 seconds (Human lymphocytes; 10^-8 M/l, +ConA): 849 ± 133 number of pulses for 20 seconds; Stimulation index (Human lymphocytes; 10^-8 M/l, +ConA): 3.63; Radioactivity, number of pulses for 20 seconds (Human lymphocytes; 10^-8 M/l, no mitogen): 234 ± 36 number of pulses for 20 seconds
γ-L-glutamylhistamine [compound XLIV]	1415,5±47,2 seconds	1844,8±93,2*^5 seconds	69.5 ± 1.32**^2	61.5 ± 2.64*^1,2	71 ± 0.82	67.7 ± 3.95	77.5 ± 1.65	160	10	80	80	100	140	80	20	320	40	32	32	stimulating effect	Lifetime (seconds) (mongrel male mice; without preliminary hypoxia, oral 5 days, 0,05 mg/kg): 2110,6±123,6**^1 seconds; Lifetime (seconds) (mongrel male mice; without preliminary hypoxia, oral 5 days, 0,50 mg/kg): 1742,8±68,1*^1 seconds; Radioactivity, number of pulses for 20 seconds (Human lymphocytes; 10^-3 M/l, +ConA): 1072 ± 135 number of pulses for 20 seconds; Stimulation index (Human lymphocytes; 10^-3 M/l, +ConA): 3.01; Radioactivity, number of pulses for 20 seconds (Human lymphocytes; 10^-3 M/l, no mitogen): 356±51 number of pulses for 20 seconds; Radioactivity, number of pulses for 20 seconds (Human lymphocytes; 10^-4 M/l, +ConA): 1259 ± 90 number of pulses for 20 seconds; Stimulation index (Human lymphocytes; 10^-4 M/l, +ConA): 3.91; Radioactivity, number of pulses for 20 seconds (Human lymphocytes; 10^-4 M/l, no mitogen): 322 ± 38 number of pulses for 20 seconds; Radioactivity, number of pulses for 20 seconds (Human lymphocytes; 10^-5 M/l, +ConA): 1695 ± 139 number of pulses for 20 seconds; Stimulation index (Human lymphocytes; 10^-5 M/l, +ConA): 5.00; Radioactivity, number of pulses for 20 seconds (Human lymphocytes; 10^-5 M/l, no mitogen): 339 ± 32 number of pulses for 20 seconds; Radioactivity, number of pulses for 20 seconds (Human lymphocytes; 10^-6 M/l, +ConA): 1963 ± 205 number of pulses for 20 seconds; Stimulation index (Human lymphocytes; 10^-6 M/l, +ConA): 6.96; Radioactivity, number of pulses for 20 seconds (Human lymphocytes; 10^-6 M/l, no mitogen): 289 ± 52 number of pulses for 20 seconds; Radioactivity, number of pulses for 20 seconds (Human lymphocytes; 10^-7 M/l, +ConA): 1786 ± 241 number of pulses for 20 seconds; Stimulation index (Human lymphocytes; 10^-7 M/l, +ConA): 7.38; Radioactivity, number of pulses for 20 seconds (Human lymphocytes; 10^-7 M/l, no mitogen): 242 ± 19 number of pulses for 20 seconds; Radioactivity, number of pulses for 20 seconds (Human lymphocytes; 10^-8 M/l, +ConA): 971 ± 44 number of pulses for 20 seconds; Stimulation index (Human lymphocytes; 10^-8 M/l, +ConA): 4.17; Radioactivity, number of pulses for 20 seconds (Human lymphocytes; 10^-8 M/l, no mitogen): 233 ± 54 number of pulses for 20 seconds
